Experimental data as given in EP0296264A1, “Aminopropanol derivatives of 3-(2-hydroxyphenyl)-1-propanone, process for their preparation and medicines containing these compounds” (Helopharm W. Petrik GmbH & Co.KG., priority 1987, dated 1988).
Where a name gives a salt, the structure may show the parent alone.

Key:
[1] = test system: Purkinje-Fasern aus Hundeherzen; assay: Electrophysiological study on Purkinje fibres from dog hearts (Vmax, conduction delay); assay type: cell-based, Hunde; settings: Canis lupus familiaris, read-out: C20_Vmax
Text: Die antiarrhythmische Wirksamkeit der erfindungsgemäßen Verbindungen wurde sowohl anhand von elektrophysiologischen Studien an Purkinje-Fasern aus Hundeherzen sowie mit Hilfe von Ouabain-induzierten ventrikulären Tachykardien bei Hunden bestimmt. […]
Als zusätzliches Kriterium wurde der Vorzeitigkeitsindex (Prematurity-Faktor) bestimmt, der die erwünschte Wirksamkeit der erfindungsgemäßen Verbindungen bei frühzeitig einfallenden Extrasystolen charakterisiert.

[2] = Effect on contraction force of the heart, guinea pig papillary muscle (negative inotropy); assay type: cell-based, Meerschweinchen; settings: concentration that reduces the contraction of the papillary muscle by 20 %, read-out: C20_CF
Text: Die Wirkung auf die Kontraktionskraft des Herzens wurde am Meerschweinchenpapillarmuskel untersucht. Hämodynamische Studien wurden bei gesunden, wie auch akut infarzierten Hunden durchgeführt.

| Structure (SMILES) | IC20 [1] [µM] | IC20 [2] [µM] |
| --- | --- | --- |
| O=C(CCc1ccccc1OCC(O)CNC1CCCCC1)c1ccccc1 (stereo not drawn) [Beispiel 46, 1-Phenyl-3-[2ʹ-(2-hydroxy-3-cyclohexylamino-propoxy)-phenyl]-1-propanon-hydrochlorid] | 2.2 | 2 |
| COc1ccc(C(=O)CCc2ccccc2OCC(O)CNC(C)C)cc1OC (stereo not drawn) [Beispiel 4, 1-(3,4-Dimethoxyphenyl)-3-[2ʹ-(2-hydroxy-3-isopropylamino-propoxy)-phenyl]-1-propanon-hydrochlorid] | 4.8 | 22 |
| COc1cc(C(=O)CCc2ccccc2OCC(O)CNC(C)C)cc(OC)c1OC (stereo not drawn) [Beispiel 12, 1-(3,4,5-Trimethoxyphenyl)-3-[2ʹ-(2-hydroxy-3-isopropylamino-propoxy)-phenyl]-1-propanon-hydrochlorid] | 5.8 | 18 |
| COc1cccc(C(=O)CCc2ccccc2OCC(O)CNC(C)(C)C)c1 (stereo not drawn) [Beispiel 27, 1-(3-Methoxyphenyl)-3-[2ʹ-(2-hydroxy-3-tert.-butylamino-propoxy)-phenyl]-1-propanon-hydrochlorid] | 1.6 | 4 |
| CC(C)(C)NCC(O)COc1ccccc1CCC(=O)c1ccccc1 (stereo not drawn) [Beispiel 48, 1-Phenyl-3-[2ʹ-(2-hydroxy-3-tert.-butylamino-propoxy)-phenyl]-1-propanon-hydrochlorid] | 1 | 3 |
| CCC(C)(C)NCC(O)COc1ccccc1CCC(=O)c1ccc(OC)c(OC)c1 (stereo not drawn) [Beispiel 2, 1-(3,4-Dimethoxyphenyl)-3-[2ʹ-(2-hydroxy-3-tert.-pentylamino-propoxy)-phenyl]-1-propanon-hydrochlorid] | 3.6 | 8 |
| COc1ccc(C(=O)CCc2ccccc2OCC(O)CN2CCCCC2)cc1OC (stereo not drawn) [Beispiel 6, 1-(3,4-Dimethoxyphenyl)-3-[2ʹ-(2-hydroxy-3-piperidino-propoxy)-phenyl]-1-propanon-hydrochlorid] | 11.3 | 20 |
| Cc1ccc(C(=O)CCc2ccccc2OCC(O)CNC(C)(C)C)cc1 (stereo not drawn) [Beispiel 44, 1-(4-Methylphenyl)-3-[2ʹ-(2-hydroxy-3-tert.-butylamino-propoxy)-phenyl]-1-propanon-hydrochlorid] | 2.6 | 6 |
| COc1ccc(C(=O)CCc2ccccc2OCC(O)CNCC(C)O)cc1OC (stereo not drawn) [Beispiel 7, 1-(3,4-Dimethoxyphenyl)-3-[2ʹ-(2-hydroxy-3-(2ʺ-hydroxypropylamino)-propoxy)-phenyl]-1-propanon-hydrochlorid] | 5.7 | 18 |
| CCC(CO)NCC(O)COc1ccccc1CCC(=O)c1ccc(OC)c(OC)c1 (stereo not drawn) [Beispiel 9, 1-(3,4-Dimethoxyphenyl)-3-[2ʹ-(2-hydroxy-3-(1ʺ-hydroxybut-2-ylamino)-propoxy)-phenyl]-1-propanon-oxalat] | 10.2 | 25 |
| COc1ccccc1C(=O)CCc1ccccc1OCC(O)CNC(C)(C)C (stereo not drawn) [Beispiel 38, 1-(2-Methoxyphenyl)-3-[2ʹ-(2-hydroxy-3-tert.-butylamino-propoxy)-phenyl]-1-propanon-hydrochlorid] | 1.7 | 7 |
| CCCNCC(O)COc1ccccc1CCC(=O)c1ccc(OC)c(OC)c1 (stereo not drawn) [Beispiel 1, 1-(3,4-Dimethoxyphenyl)-3-[2ʹ-(2-hydroxy-3-n-propylamino-propoxy)-phenyl]-1-propanon-hydrochlorid] | 12.5 | 15 |
| COc1cc(C(=O)CCc2ccccc2OCC(O)CNC2CCCCC2)cc(OC)c1OC (stereo not drawn) [Beispiel 16, 1-(3,4,5-Trimethoxyphenyl)-3-[2ʹ-(2-hydroxy-3-cyclohexylamino-propoxy)-phenyl]-1-propanon-hydrochlorid] | 11.9 | 9 |
| CCCNCC(O)COc1ccccc1CCC(=O)c1cccc(OC)c1 (stereo not drawn) [Beispiel 26, 1-(3-Methoxyphenyl)-3-[2ʹ-(2-hydroxy-3-n-propylamino-propoxy)-phenyl]-1-propanon-hydrochlorid] | 1.7 | 3 |
| COc1ccc(C(=O)CCc2ccccc2OCC(O)CNCCO)cc1OC (stereo not drawn) [Beispiel 8, 1-(3,4-Dimethoxyphenyl)-3-[2ʹ-(2-hydroxy-3-(2ʺ-hydroxyethylamino)-propoxy)-phenyl]-1-propanon-hydrochlorid] | 8.3 | 13 |
| COc1ccc(C(=O)CCc2ccccc2OCC(O)CNC(C)(C)C)cc1OC (stereo not drawn) [Beispiel 5, 1-(3,4-Dimethoxyphenyl)-3-[2ʹ-(2-hydroxy-3-tert.-butylamino-propoxy)-phenyl]-1-propanon-hydrochlorid] | 4.4 | 12 |
| O=C(CCc1ccccc1OCC(O)CN1CCCCC1)c1ccccc1 (stereo not drawn) [Beispiel 47, 1-Phenyl-3-[2ʹ-(2-hydroxy-3-piperidino-propoxy)-phenyl]-1-propanon-hydrochlorid] | 0.3 | 2 |
| COc1cccc(C(=O)CCc2ccccc2OCC(O)CNC(C)C)c1 (stereo not drawn) [Beispiel 24, 1-(3-Methoxyphenyl)-3-[2ʹ-(2-hydroxy-3-isopropylamino-propoxy)-phenyl]-1-propanon-hydrochlorid] | 1.6 | 10 |
